# From US9695155B2, “Herbicidal substituted pyrimidinyloxy benzene compounds” (E. I. DU PONT DE NEMOURS AND COMPANY, priority 2013, dated 2017)
# How the values were obtained:
# [1] = tested on: wheat; experiment: Test A postemergence; type: in vivo, Triticum aestivum; settings: 0 to 100 scale where 0 is no effect and 100 is complete control
# How it was run: (§1)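 Greenhouse pot test, loam/sand soil. Formulation: non-phytotoxic solvent mix plus surfactant. Pre: directed spray onto soil after sowing. Post: plants at 1–2 leaf, 2–10 cm. Rated visually vs untreated controls at ~10 d, 0 (no effect) to 100 (complete control).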
# [2] = tested on: corn; experiment: Test A postemergence; type: in vivo, Zea mays
# How it was run: as §1
# [3] = tested on: velvetleaf; experiment: Test A postemergence; type: in vivo, Abutilon theophrasti; settings: 0 to 100 scale where 0 is no effect and 100 is complete control
# How it was run: as §1
# [4] = tested on: giant foxtail; experiment: Test A preemergence; type: in vivo, Setaria faberii; settings: for Foxtail, Giant plant response rating: 500 g ai/ha
# How it was run: as §1
# [5] = tested on: Heteranthera limosa; experiment: Test B flooded paddy test; type: in vivo; settings: Flood, 250 g ai/ha; 0 to 100 scale where 0 is no effect and 100 is complete control
# How it was run: (§2)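 Plants were grown to the 2-leaf stage, then pots were flooded to 3 cm above the soil and compounds were applied directly into the paddy water. That depth was held throughout, and after 13 to 15 days in the greenhouse injury was rated visually against controls on a 0–100 scale (0 no effect, 100 complete control).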
# [6] = tested on: pigweed; experiment: Test A preemergence; type: in vivo, Amaranthus retroflexus; settings: for Pigweed plant response rating: 500 g ai/ha
# How it was run: as §1
# [7] = tested on: sedge, umbrella; experiment: Test C flooded paddy test; type: in vivo, Cyperus difformis; settings: Flood, scale 0 to 100 (0 no effect, 100 complete control), 13 to 15 days
# How it was run: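 In-water treatment: compound dosed into 3 cm flood over soil, water level unchanged throughout. Controls run alongside; visual assessment at day 13–15.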
# [8] = tested on: morningglory; experiment: Test A postemergence; type: in vivo, Ipomoea spp.; settings: 0 to 100 scale where 0 is no effect and 100 is complete control
# How it was run: as §1
# [9] = tested on: rice; experiment: Test B flooded paddy test; type: in vivo, Oryza sativa; settings: Flood, 250 g ai/ha; 0 to 100 scale where 0 is no effect and 100 is complete control
# How it was run: as §2
# [10] = tested on: giant foxtail; experiment: Test A postemergence; type: in vivo, Setaria faberii; settings: 0 to 100 scale where 0 is no effect and 100 is complete control
# How it was run: as §1
# [11] = tested on: velvetleaf; experiment: Test A preemergence; type: in vivo, Abutilon theophrasti; settings: for Velvetleaf plant response rating: 500 g ai/ha
# How it was run: as §1
# [12] = tested on: ducksalad; experiment: Test C flooded paddy test; type: in vivo, Heteranthera limosa; settings: Flood, scale 0 to 100 (0 no effect, 100 complete control), 13 to 15 days
# Text: (§3) At time of treatment, test pots were flooded to 3 cm above the soil surface, treated by application of test compounds directly to the paddy water, and then maintained at that water depth for the duration of the test. Treated plants and controls were maintained in a greenhouse for 13 to 15 days, after which time all species were compared to controls and visually evaluated. […] A dash (-) response means no test result.
# [13] = tested on: barnyardgrass; experiment: Test A preemergence; type: in vivo, Echinochloa crus-galli; settings: for Barnyardgrass plant response rating: 500 g ai/ha
# How it was run: as §1
# [14] = tested on: barnyardgrass; experiment: Test C flooded paddy test; type: in vivo, Echinochloa crus-galli; settings: Flood, scale 0 to 100 (0 no effect, 100 complete control), 13 to 15 days
# Text: as §3
# [15] = tested on: barnyardgrass; experiment: Test B flooded paddy test; type: in vivo, Echinochloa crus-galli; settings: Flood, 250 g ai/ha; 0 to 100 scale where 0 is no effect and 100 is complete control
# How it was run: as §2
# [16] = tested on: pigweed; experiment: Test A postemergence; type: in vivo, Amaranthus retroflexus; settings: 0 to 100 scale where 0 is no effect and 100 is complete control
# How it was run: as §1
# [17] = tested on: large (Lg) crabgrass; experiment: Test A postemergence; type: in vivo, Digitaria sanguinalis
# How it was run: as §1
# [18] = tested on: wheat; experiment: Test A preemergence; type: in vivo, Triticum aestivum; settings: for Wheat plant response rating: 500 g ai/ha
# How it was run: as §1
# [19] = tested on: sedge, umbrella; experiment: Test B flooded paddy test; type: in vivo, Cyperus difformis; settings: Flood, 250 g ai/ha; 0 to 100 scale where 0 is no effect and 100 is complete control
# How it was run: as §2
# [20] = tested on: corn; experiment: Test A preemergence; type: in vivo, Zea mays; settings: for Corn plant response rating: 500 g ai/ha
# How it was run: as §1
# [21] = tested on: rice; experiment: Test C flooded paddy test; type: in vivo, Oryza sativa; settings: Flood, scale 0 to 100 (0 no effect, 100 complete control), 13 to 15 days
# Text: as §3
# [22] = tested on: barnyardgrass; experiment: Test A postemergence; type: in vivo, Echinochloa crus-galli
# How it was run: as §1
# [23] = tested on: large (Lg) crabgrass; experiment: Test A preemergence; type: in vivo, Digitaria sanguinalis; settings: for Crabgrass, Large plant response rating: 500 g ai/ha
# How it was run: as §1
# [24] = tested on: morningglory; experiment: Test A preemergence; type: in vivo, Ipomoea spp.; settings: for Morningglory plant response rating: 500 g ai/ha
# How it was run: as §1
# [25] = 125 g ai/ha, 0 to 100 scale where 0 is no effect and 100 is complete control
# [26] = 500 g ai/ha, 0 to 100 scale, 0 no effect, 100 complete control
# [27] = 0 to 100 scale, 0 no effect, 100 complete control, approx. 10 days
# [28] = 500 g ai/ha, 0 to 100 scale where 0 is no effect and 100 is complete control
# [29] = 0 to 100 scale where 0 is no effect and 100 is complete control
compound,measurement,setting,value
FC(F)c1cnn(-c2ccccc2Oc2ncc(Br)cn2)c1 [Compound 81],"Plant response rating, Wheat",[1]; 125 g ai/ha,10
same,"Plant response rating, Wheat",[1]; 500 g ai/ha,60
same,"Plant response rating, Corn",[2]; [25],50
same,"Plant response rating, Corn",[2]; [26],30
same,"Plant response rating, Velvetleaf",[3]; 125 g ai/ha,100
same,"Plant response rating, Velvetleaf",[3]; 500 g ai/ha,100
same,"Plant response rating, Foxtail, Giant",[4]; [25],80
same,"Foxtail, Giant plant response rating",[4]; [27],100
same,"Plant response rating, Ducksalad",[5],90
same,"Plant response rating, Pigweed",[6]; [25],0
same,Pigweed plant response rating,[6]; [27],0
same,"Plant response rating, Sedge, Umbrella",[7]; 31 g ai/ha,0
same,"Plant response rating, Sedge, Umbrella",[7]; 62 g ai/ha,50
same,"Plant response rating, Sedge, Umbrella",[7]; 125 g ai/ha,70
same,"Plant response rating, Sedge, Umbrella",[7]; 250 g ai/ha,90
same,"Plant response rating, Morningglory",[8]; 125 g ai/ha,50
same,"Plant response rating, Morningglory",[8]; 500 g ai/ha,100
same,"Plant response rating, Rice",[9],0
same,"Plant response rating, Foxtail, Giant",[10]; 125 g ai/ha,50
same,"Plant response rating, Foxtail, Giant",[10]; 500 g ai/ha,90
same,"Plant response rating, Velvetleaf",[11]; [25],50
same,Velvetleaf plant response rating,[11]; [27],100
same,"Plant response rating, Ducksalad",[12]; 31 g ai/ha,30
same,"Plant response rating, Ducksalad",[12]; 62 g ai/ha,40
same,"Plant response rating, Ducksalad",[12]; 125 g ai/ha,60
same,"Plant response rating, Ducksalad",[12]; 250 g ai/ha,90
same,"Plant response rating, Barnyardgrass",[13]; [25],0
same,Barnyardgrass plant response rating,[13]; [27],70
same,"Plant response rating, Barnyardgrass",[14]; 31 g ai/ha,0
same,"Plant response rating, Barnyardgrass",[14]; 62 g ai/ha,0
same,"Plant response rating, Barnyardgrass",[14]; 125 g ai/ha,0
same,"Plant response rating, Barnyardgrass",[14]; 250 g ai/ha,0
same,"Plant response rating, Barnyardgrass",[15],0
same,"Plant response rating, Pigweed",[16]; 125 g ai/ha,100
same,"Plant response rating, Pigweed",[16]; 500 g ai/ha,100
same,"Plant response rating, Crabgrass, Large",[17]; [25],40
same,"Plant response rating, Crabgrass, Large",[17]; [26],90
same,"Plant response rating, Wheat",[18]; [25],10
same,Wheat plant response rating,[18]; [27],10
same,"Plant response rating, Sedge, Umbrella",[19],80
same,"Plant response rating, Corn",[20]; [25],0
same,Corn plant response rating,[20]; [27],10
same,"Plant response rating, Rice",[21]; 31 g ai/ha,0
same,"Plant response rating, Rice",[21]; 62 g ai/ha,0
same,"Plant response rating, Rice",[21]; 125 g ai/ha,0
same,"Plant response rating, Rice",[21]; 250 g ai/ha,0
same,"Plant response rating, Barnyardgrass",[22]; [25],50
same,"Plant response rating, Barnyardgrass",[22]; [26],100
same,"Plant response rating, Crabgrass, Large",[23]; [25],90
same,"Crabgrass, Large plant response rating",[23]; [27],100
same,"Plant response rating, Morningglory",[24]; [25],0
same,Morningglory plant response rating,[24]; [27],60
FC(F)c1cccc(Oc2ncc(Br)cn2)c1-n1cc(I)cn1 [Compound 185],Wheat plant response rating,[1]; 125 g ai/ha,0
same,"Plant response rating, Wheat",[1]; 500 g ai/ha,40
same,Corn plant response rating,[2]; [25],10
same,"Plant response rating, Corn",[2]; [28],20
same,Velvetleaf plant response rating,[3]; 125 g ai/ha,90
same,"Plant response rating, Velvetleaf",[3]; 500 g ai/ha,100
same,"Foxtail, Giant plant response rating (0 to 100 scale)",[4]; 125 g ai/ha,90
same,"Foxtail, Giant plant response rating",[4]; [29],100
same,"Plant response rating, Ducksalad",[5],95
same,Pigweed plant response rating (0 to 100 scale),[6]; 125 g ai/ha,100
same,Pigweed plant response rating,[6]; [29],100
same,"Plant response rating, Sedge, Umbrella",[7]; 31 g ai/ha,0
same,"Plant response rating, Sedge, Umbrella",[7]; 62 g ai/ha,50
same,"Plant response rating, Sedge, Umbrella",[7]; 125 g ai/ha,50
same,"Plant response rating, Sedge, Umbrella",[7]; 250 g ai/ha,85
same,Morningglory plant response rating,[8]; 125 g ai/ha,70
same,"Plant response rating, Morningglory",[8]; 500 g ai/ha,90
same,"Plant response rating, Rice",[9],0
same,"Foxtail, Giant plant response rating",[10]; 125 g ai/ha,50
same,"Plant response rating, Foxtail, Giant",[10]; 500 g ai/ha,80
same,Velvetleaf plant response rating (0 to 100 scale),[11]; 125 g ai/ha,40
same,Velvetleaf plant response rating,[11]; [29],80
same,"Plant response rating, Ducksalad",[12]; 31 g ai/ha,0
same,"Plant response rating, Ducksalad",[12]; 62 g ai/ha,0
same,"Plant response rating, Ducksalad",[12]; 125 g ai/ha,0
same,"Plant response rating, Ducksalad",[12]; 250 g ai/ha,40
same,"Barnyardgrass plant response rating (0 to 100 scale, 0 is no effect, 100 is complete control)",[13]; 125 g ai/ha,40
same,Barnyardgrass plant response rating,[13]; [29],80
same,"Plant response rating, Barnyardgrass",[14]; 31 g ai/ha,0
same,"Plant response rating, Barnyardgrass",[14]; 62 g ai/ha,0
same,"Plant response rating, Barnyardgrass",[14]; 125 g ai/ha,0
same,"Plant response rating, Barnyardgrass",[14]; 250 g ai/ha,0
same,"Plant response rating, Barnyardgrass",[15],0
same,Pigweed plant response rating,[16]; 125 g ai/ha,100
same,"Plant response rating, Pigweed",[16]; 500 g ai/ha,100
same,"Crabgrass, Large plant response rating",[17]; [25],60
same,"Plant response rating, Crabgrass, Large",[17]; [28],90
same,Wheat plant response rating (0 to 100 scale),[18]; 125 g ai/ha,0
same,Wheat plant response rating,[18]; [29],10
same,"Plant response rating, Sedge, Umbrella",[19],90
same,Corn plant response rating (0 to 100 scale),[20]; 125 g ai/ha,0
same,Corn plant response rating,[20]; [29],10
same,"Plant response rating, Rice",[21]; 31 g ai/ha,0
same,"Plant response rating, Rice",[21]; 62 g ai/ha,0
same,"Plant response rating, Rice",[21]; 125 g ai/ha,0
same,"Plant response rating, Rice",[21]; 250 g ai/ha,15
same,Barnyardgrass plant response rating,[22]; [25],50
same,"Plant response rating, Barnyardgrass",[22]; [28],80
same,"Crabgrass, Large plant response rating (0 to 100 scale)",[23]; 125 g ai/ha,90
same,"Crabgrass, Large plant response rating",[23]; [29],100
same,Morningglory plant response rating (0 to 100 scale),[24]; 125 g ai/ha,10
same,Morningglory plant response rating,[24]; [29],30
